The record followed here is patent US9062048B2, “Cyclohexyl-azetidinyl antagonists of CCR2” (Janssen Pharmaceutica NV, priority 2010, dated 2015).

The target of this test is CCR2 (Homo sapiens (Human), UniProt P41597). Put plainly: MCP-1 Receptor Binding Assay in THP-1 Cells.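 Also: THP-1 is a human monocytic cell line, and nonspecific binding was defined with 1 µM unlabeled MCP-1.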 The settings on record: 0.5 nM 125I labeled MCP-1, 2 hours at 30° C., read-out: Inhibition of MCP-1 Binding IC50 MCP1B.
CCR2, sequence (P41597 whole entry): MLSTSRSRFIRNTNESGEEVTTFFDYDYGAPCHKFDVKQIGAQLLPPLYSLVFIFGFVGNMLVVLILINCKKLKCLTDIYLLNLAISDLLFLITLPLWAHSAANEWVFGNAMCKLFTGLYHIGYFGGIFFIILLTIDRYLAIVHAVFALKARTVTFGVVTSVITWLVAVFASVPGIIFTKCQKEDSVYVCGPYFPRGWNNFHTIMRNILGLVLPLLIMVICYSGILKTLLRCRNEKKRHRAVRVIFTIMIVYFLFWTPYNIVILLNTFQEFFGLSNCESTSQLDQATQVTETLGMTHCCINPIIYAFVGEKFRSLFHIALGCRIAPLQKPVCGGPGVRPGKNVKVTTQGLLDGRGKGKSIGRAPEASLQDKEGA
In general, IC50 refers to the concentration that gives 50% inhibition. For `CC(C)[C@@H](O)[C@H]1CC[C@H](N2CC(NC(=O)CNc3cnnc4ccc(C(F)(F)F)cc34)C2)CC1` (racemic) [Example 158, N-(1-((1R,4r)-4-((R)-1-hydroxy-2-methylpropyl)cyclohexyl)azetidin-3-yl)-2-((6-(trifluoromethyl)cinnolin-4-yl)amino)acetamide], the half-inhibitory concentration (IC50) turned out to be 2.56 µM.

On to `CC(C)[C@@H](O)[C@H]1CC[C@@H](N2CC(NC(=O)CNc3nncc4ccc(C(F)(F)F)cc34)C2)CC1` (racemic) [Example 159, N-(1-((1R,4s)-4-((S)-1-hydroxy-2-methylpropyl)cyclohexyl)azetidin-3-yl)-2-((7-(trifluoromethyl)phthalazin-1-yl)amino)acetamide], for which the IC50 was 8.29 µM. Consider `CC(C)[C@H](O)[C@H]1CC[C@H](N2CC(NC(=O)CNc3nncc4ccc(C(F)(F)F)cc34)C2)CC1` (racemic) [Example 160, N-(1-((1S,4r)-4-((S)-1-hydroxy-2-methylpropyl)cyclohexyl)azetidin-3-yl)-2-((7-(trifluoromethyl)phthalazin-1-yl)amino)acetamide], for which the half-inhibitory concentration (IC50) was determined as 0.022 µM. The same measure for `O=C(CNc1ncnc2ccc(C(F)(F)F)cc12)NC1CN(C2CCC([C@@H](O)C3CC3)CC2)C1` (single isomer, unassigned; (+)) [(+) 6]: 0.025 µM.

As to `CC(C)[C@H](O)C1CCC(N2CC(NC(=O)CNc3ncnc4ccc(C(F)(F)F)cc34)C2)CC1` (single isomer, unassigned; (+)) [(+) 8], the IC50 turned out to be 0.044 µM. To `O=C(CNc1ncnc2ccc(C(F)(F)F)cc12)NC1CN(C2CCC([C@@H](O)C3CC3)CC2)C1` (single isomer, unassigned; (-)) [(−) 6] belongs 0.008 µM; to `CC(C)[C@H](O)C1CCC(N2CC(NC(=O)CNc3ncnc4ccc(C(F)(F)F)cc34)C2)CC1` (single isomer, unassigned; (-)) [(−) 8], 0.01 µM; to `CC[C@@H](O)[C@H]1CC[C@@H](N2CC(NC(=O)CNc3nccc4ncc(C(F)(F)F)cc34)C2)CC1` (stereo in doubt) [Example 150, N-(1-((1R,4s)-4-((S)-1-hydroxypropyl)cyclohexyl)azetidin-3-yl)-2-((3-(trifluoromethyl)-1,6-naphthyridin-5-yl)amino)acetamide], 0.43 µM. Turning to `CC[C@@H](O)[C@H]1CC[C@@H](N2CC(NC(=O)CNc3nncc4ccc(C(F)(F)F)cc34)C2)CC1` (stereo in doubt) [Example 153, N-(1-((1R,4s)-4-((S)-1-hydroxypropyl)cyclohexyl)azetidin-3-yl)-2-((7-(trifluoromethyl)phthalazin-1-yl)amino)acetamide], the IC50 came out at 0.015 µM. Take `CC(C)[C@@H](O)[C@H]1CC[C@@H](N2CC(NC(=O)CNc3nccc4ncc(C(F)(F)F)cc34)C2)CC1` (stereo in doubt) [Example 155, N-(1-((1R,4s)-4-((S)-1-hydroxy-2-methylpropyl)cyclohexyl)azetidin-3-yl)-2-((3-(trifluoromethyl)-1,6-naphthyridin-5-yl)amino)acetamide]: the half-inhibitory concentration (IC50) is greater than 25 µM. As to `O=C(CNc1ncnc2ccc(C(F)(F)F)cc12)NC1CN([C@H]2CC[C@@H]([C@@H](O)C3CC3)CC2)C1` [(+) 4, N-(1-((1S,4s)-4-(cyclopropyl(hydroxy)methyl)cyclohexyl)azetidin-3-yl)-2-((6-(trifluoromethyl)quinazolin-4-yl)amino)acetamide], the IC50 turned out to be 0.024 µM. In the case of `O=C(CNc1ncnc2ccc(C(F)(F)F)cc12)NC1CN([C@H]2CC[C@@H]([C@@H](O)C3CC3)CC2)C1` [(−) 4, N-(1-((1S,4s)-4-(cyclopropyl(hydroxy)methyl)cyclohexyl)azetidin-3-yl)-2-((6-(trifluoromethyl)quinazolin-4-yl)amino)acetamide], the IC50 amounted to 0.008 µM. With `O=C(CNc1ncnc2ccc(C(F)(F)F)cc12)NC1CN(C2CCC(c3ncccc3O)CC2)C1` (centres unmarked) [Example 1, N-(1-(4-(3-hydroxypyridin-2-yl)cyclohexyl)azetidin-3-yl)-2-((6-(trifluoromethyl)quinazolin-4-yl)amino)acetamide], the concentration for half-maximal inhibition (IC50) amounted to 0.004 µM. On to `O=C(CNc1ncnc2ccc(C(F)(F)F)cc12)NC1CN([C@H]2CC[C@@H](C3CC=CCO3)CC2)C1` (stereo partly drawn) [Example 2, N-(1-((1S,4s)-4-(−3,6-dihydro-2H-pyran-2-yl)cyclohexyl)azetidin-3-yl)-2-((6-(trifluoromethyl)quinazolin-4-yl)amino)acetamide and N-(1-((1S,4r)-4-(3,6-dihydro-2H-pyran-2-yl)cyclohexyl)azetidin-3-yl)-2((6-(trifluoromethyl)quinazolin-4-yl)amino)acetamide], for which the IC50 came to 0.005 µM. The same measure for `O=C(CNc1ncnc2ccc(C(F)(F)F)cc12)NC1CN([C@H]2CC[C@@H](C(O)C3CC3)CC2)C1` (stereo partly drawn) [Example 3, N-(1-((1S,4s)-4-(cyclopropyl(hydroxy)methyl)cyclohexyl)azetidin-3-yl)-2-((6-(trifluoromethyl)quinazolin-4-yl)amino)acetamide]: 0.022 µM; for `[2H][C@]1(N2CC(NC(=O)CNc3ncnc4ccc(C(F)(F)F)cc34)C2)CC[C@@H](C(O)C2CC2)CC1` (stereo partly drawn) [Example 5, N-(1-((1S,4s)-4-(cyclopropyl(hydroxy)methyl)1-deuterocyclohexyl)azetidin-3-yl)-2-((6-(trifluoromethyl)quinazolin-4-yl)amino)acetamide]: 0.014 µM. In the case of `CC(C)C(O)[C@H]1CC[C@@H](N2CC(NC(=O)CNc3ncnc4ccc(C(F)(F)F)cc34)C2)CC1` (stereo partly drawn) [Example 7, N-(1-((1S,4s)-4-(1-hydroxy-2-methylpropyl)cyclohexyl)azetidin-3-yl)-2-((6-(trifluoromethyl)quinazolin-4-yl)amino)acetamide], the IC50 turned out to be 0.009 µM. On to `C=C[C@H]1CC[C@@H](N2CC(NC(=O)CNc3ncnc4ccc(C(F)(F)F)cc34)C2)CC1` [Example 9, 2-((6-(trifluoromethyl)quinazolin-4-yl)amino)-N-(1-((1s,4s)-4-vinylcyclohexyl)azetidin-3-yl)acetamide and 2-((6-(trifluoromethyl)quinazolin-4-yl)amino)-N-(1-((1r,4r)-4-vinylcyclohexyl)azetidin-3-yl)acetamide], for which the 50% inhibitory concentration (IC50) is 0.009 µM. Take `O=C(CNc1ncnc2ccc(C(F)(F)F)cc12)NC1CN([C@H]2CC[C@@H](C3C=CCO3)CC2)C1` (stereo partly drawn) [Example 10, N-(1-((1R,4s)-4-(2,5-dihydrofuran-2-yl)cyclohexyl)azetidin-3-yl)-2-((6-(trifluoromethyl)quinazolin-4-yl)amino)acetamide and N-(1-((1R,4r)-4-(2,5-dihydrofuran-2-yl)cyclohexyl)azetidin-3-yl)-2-((6-(trifluoromethyl)quinazolin-4-yl)amino)acetamide]: the concentration for half-maximal inhibition (IC50) turned out to be 0.009 µM. To `O=C1C=CCC([C@H]2CC[C@@H](N3CC(NC(=O)CNc4ncnc5ccc(C(F)(F)F)cc45)C3)CC2)N1` (stereo partly drawn) [Example 11, N-(1-((1S,4s)-4-(6-oxo-1,2,3,6-tetrahydropyridin-2-yl)cyclohexyl)azetidin-3-yl)-2-((6-(trifluoromethyl)quinazolin-4-yl)amino)acetamide] belongs 0.012 µM.

For the molecule `O=C(CNc1ncnc2ccc(C(F)(F)F)cc12)NC1CN([C@H]2CC[C@@H](C3CCCC(=O)N3)CC2)C1` (stereo partly drawn) [Example 13, N-(1-((1S,4s)-4-(6-oxopiperidin-2-yl)cyclohexyl)azetidin-3-yl)-2-((6-(trifluoromethyl)quinazolin-4-yl)amino)acetamide], the IC50 stood at 0.01 µM. `O=C(CNc1ncnc2ccc(C(F)(F)F)cc12)NC1CN([C@H]2CC[C@@H](C3CCCCO3)CC2)C1` (stereo partly drawn) [Example 14, N-(1-((1S,4s)-4-(tetrahydro-2H-pyran-2-yl)cyclohexyl)azetidin-3-yl)-2-((6-(trifluoromethyl)quinazolin-4-yl)amino)acetamide]: the half-maximal inhibitory concentration (IC50) was found to be 0.015 µM. For `O=C(CNc1ncnc2ccc(C(F)(F)F)cc12)NC1CN([C@H]2CC[C@@H](C3CCCO3)CC2)C1` (some centres unmarked) [Example 15], the half-maximal inhibitory concentration (IC50) came to 0.049 µM. Turning to `O=C(CNc1ncnc2ccc(C(F)(F)F)cc12)NC1CN([C@H]2CC[C@@H](C3COC(=O)N3)CC2)C1` (stereo partly drawn) [Example 16, N-(1-((1R,4s)-4-(2-oxooxazolidin-4-yl)cyclohexyl)azetidin-3-yl)-2-((6-(trifluoromethyl)quinazolin-4-yl)amino)acetamide], the concentration for half-maximal inhibition (IC50) was 0.035 µM. On to `O=C(CNc1ncnc2ccc(C(F)(F)F)cc12)NC1CN([C@H]2CC[C@@H](C3CCOC(=O)N3)CC2)C1` (stereo partly drawn) [Example 17, N-(1-((1R,4s)-4-(2-oxo-1,3-oxazinan-4-yl)cyclohexyl)azetidin-3-yl)-2-((6-(trifluoromethyl)quinazolin-4-yl)amino)acetamide], for which the concentration for half-maximal inhibition (IC50) was 0.058 µM. With `CSCC(O)[C@H]1CC[C@@H](N2CC(NC(=O)CNc3ncnc4ccc(C(F)(F)F)cc34)C2)CC1` (stereo partly drawn) [Example 18, N-(1-((1S,4s)-4-(1-hydroxy-2-(methylthio)ethyl)cyclohexyl)azetidin-3-yl)-2-((6-(trifluoromethyl)quinazolin-4-yl)amino)acetamide], the IC50 was determined as 0.01 µM. In the case of `[N-]=[N+]=NCC(O)[C@H]1CC[C@@H](N2CC(NC(=O)CNc3ncnc4ccc(C(F)(F)F)cc34)C2)CC1` (stereo partly drawn) [Example 19, N-(1-((1S,4s)-4-(2-azido-1-hydroxyethyl)cyclohexyl)azetidin-3-yl)-2-((6-(trifluoromethyl)quinazolin-4-yl)amino)acetamide], the IC50 came to 0.016 µM.

Regarding `COCC(O)[C@H]1CC[C@@H](N2CC(NC(=O)CNc3ncnc4ccc(C(F)(F)F)cc34)C2)CC1` (stereo partly drawn) [Example 20, N-(1-((1S,4s)-4-(1-hydroxy-2-methoxyethyl)cyclohexyl)azetidin-3-yl)-2-((6-(trifluoromethyl)quinazolin-4-yl)amino)acetamide], the half-maximal inhibitory concentration (IC50) is 0.058 µM. Consider `O=C(CNc1ncnc2ccc(C(F)(F)F)cc12)NC1CN([C@H]2CC[C@@H](C3CNC(=O)O3)CC2)C1` (stereo partly drawn) [Example 22, N-(1-((1S,4s)-4-(2-oxooxazolidin-5-yl)cyclohexyl)azetidin-3-yl)-2-((6-(trifluoromethyl)quinazolin-4-yl)amino)acetamide], for which the concentration for half-maximal inhibition (IC50) came to 0.064 µM.
